The results in this text go back to ChEMBL document CHEMBL1149008, “Antitumor agents, 81. Justicidin-A and diphyllin, two cytotoxic principles from Justicia procumbens” (1986).

≈ marks a conversion by molar mass, not a printed value.

In this experiment the test system is KB. Description: Cytotoxicity against human KB cells. It counts as functional. The conditions noted are these: read-out: ED50 (the source's name).
Take `O=C1OCc2c1cc1cc3c(cc1c2-c1ccc2c(c1)OCO2)OCO3`: the EC50 is above 10.5 µg/mL. As to `COc1cc2c(O)c3c(c(-c4ccc5c(c4)OCO5)c2cc1OC)C(=O)OC3` [DIPHYLLIN], the EC50 was below 1 µg/mL. The value for `COc1cc2c(OC)c3c(c(-c4ccc5c(c4)OCO5)c2cc1OC)C(=O)OC3` [JUSTICIDIN A] was below 1 µg/mL; that for `COc1c2c(c(-c3ccc4c(c3)OCO4)c3cc4c(cc13)OCO4)COC2=O` [NEOJUSTICIN A] was 9 µg/mL (≈ 23.8 µM).

`COc1cc2c(OC)c3c(c(-c4ccc5c(c4)OCO5)c2cc1OC)COC3=O` [NEOJUSTICIN B]: the EC50 is above 10.5 µg/mL.
